Data taken from patent publication US8058451B2, “Hydroxycucurbituril derivatives, their preparation methods and uses” (Postech Foundation, priority 2002, dated 2011).

Legend:
[1] = Host-guest complex formation with p-toluidine in D2O; type: binding; conditions: 6.6 mg host, 1.2 mg p-toluidine, 0.5 mL D2O
Description: 6.6 mg of hydroxycucurbit[6]uril (CB[6]^OH) prepared in Synthesis Example 1 and 1.2 mg of p-toluidine were dissolved in 0.5 mL of D2O.

[2] = Host-guest complex formation with 1,4-phenylindiamine in D2O; type: binding; conditions: 6.6 mg host, 1.2 mg 1,4-phenylindiamine, 0.5 mL D2O
Description: 6.6 mg of hydroxycucurbit[6]uril (CB[6]^OH) prepared in Synthesis Example 1 and 1.2 mg of 1,4-phenylindiamine were dissolved in 0.5 mL of D2O.

[3] = Host-guest complex formation with p-toluidine hydrochloride in D2O; type: binding; conditions: 6.6 mg host, 1.5 mg p-toluidine hydrochloride, 0.5 mL D2O
Description: 6.6 mg of hydroxycucurbit[6]uril (CB[6]^OH) prepared in Synthesis Example 1 and 1.5 mg of p-toluidine hydrochloride were dissolved in 0.5 mL of D2O.

[4] = Host-guest complex formation with acetylcholine chloride in D2O; type: binding; conditions: 6.6 mg host, 2.0 mg acetylcholine chloride, 0.5 mL D2O
Description: To investigate whether the hydroxycucurbituril derivatives prepared in Synthesis Example 1 can effectively transport physiologically active materials or drugs, the following example was carried out using acetylcholine chloride as a neurotransmitter.

[5] = Host-guest complex formation with isobutene gas in D2O; type: binding; conditions: 6.6 mg host in 0.5 mL D2O, isobutene gas injected
[6] = Host-guest complex formation with tetrahydrofuran in D2O; type: binding; conditions: 6.6 mg host, 10 μL tetrahydrofuran, 0.5 mL D2O
Description: 6.6 mg of hydroxycucurbit[6]uril (CB[6]^OH) prepared in Synthesis Example 1 and 10 μL of tetrahydrofuran were dissolved in 0.5 mL of D2O.

[7] = Host-guest complex formation with cyclopentane in D2O; type: binding; conditions: 6.6 mg host, 10 μL cyclopentane, 0.5 mL D2O
Description: 6.6 mg of hydroxycucurbit[6]uril (CB[6]^OH) prepared in Synthesis Example 1 and 10 μL of cyclopentane were dissolved in 0.5 mL of D2O.

[8] = Ion selective electrode responses to ammonium, potassium, sodium, choline and acetylcholine ions
Description: 1% by weight of allyoxycucurbit[6]uril prepared in Synthesis Example 8, 33% by weight of polyvinylchloride and 66% by weight of 2-nitrophenyloctylether were dissolved in THF to form a membrane. With this membrane, an ion selective electrode was fabricated. Then, the responses of the electrode with respect to ammonium ion, potassium ion, sodium ion, choline ion and acetylcholine ion were measured in a 0.01M Tris-buffered solution. As a result, the selectivity of choline with respect to acetylcholine was −1.84, ammonium ion −1.31, potassium ion −0.90 and sodium ion −1.16, respectively. The allyloxycurcubit[6]uril according to the present invention can be advantageously used in clinical analysis by selective detection of a neurotransmitter in vivo, e.g., acetylcholine, instead of choline which is a major obstacle in analyzing acetylcholine. The ion selective electrode using allyoxycucurbit[6]uril can be used in measuring acetylcholine in a concentration range of 2.1×10^−6 M.

[9] = Binding constant measurement by microcalorimeter (VP-ITC) with KCl solution; conditions: 0.05 M Tris-buffered solution pH 7.2; 5.5 mM host, 110 mM KCl
Description: Since the hydroxycucurbituril derivatives obtained in Synthesis Example 1 have Lewis base atoms near the cavities of the molecule, they can effectively form a complex with metal ions or positively charged organic compounds. With these features, in order to investigate whether the hydroxycucurbituril derivatives having this property can be applied in manufacturing sensors for sensing metal ions or ammonium ions, the following example was carried out.
A 0.05 M Tris-buffered solution of pH 7.2 was prepared, and then a 5.5 mM hydroxycucurbit[5]uril (CB[5]^OH) solution prepared in Synthesis Example 2 and 110 mM of a KCl solution were prepared. Then, the binding constants of the cucurbit[5]uril derivative was measured using a microcalorimeter (VP-ITC, manufactured by MicroCal).

[10] = Ion selective electrode, potential differences on adding lead ions; conditions: 1 mM Mg(OAc)2-HCl buffered solution pH 4; lead ions 10^-6 M to 10^-3 M
Description: A solution obtained by dissolving 1% by weight of CB[5]^OH prepared in Synthesis Example 2 in 0.1 mL of methanol, 33% by weight of polyvinylchloride used as a polymer support, 65.6% by weight of 2-nitrophenyloctylether used as a plasticizer and 0.4 mL of tetrahydrofuran dissolved in 0.4% by weight of potassium tetrakis(4-chlorophenyl)borate, were homogenously mixed, followed by slowly removing the solvent, to form an ion selective membrane. An ion selective electrode was fabricated with this ion selective membrane. An electrode with a silver wire coated with silver chloride in a 0.05 M aqueous KCl solution was used as a reference electrode.
The reference electrode and the ion selective electrode were immersed in 250 mL of 1 mM Mg(OAc)2—HCl buffered solution (pH=4), followed by continuously stirring for at least 1 hour until a membrane boundary potential was stabilized. Thereafter, potential differences were measured with adding lead ions to increase the concentration by 10 fold in the range of 10^−6 M to 10^−3 M using a micropipet at an interval of 100 seconds

[11] = Binding of ammonium ions in organic solvent (CD3CN); conditions: 5.5 mg host, 6.7 mg (NH4)+(BPh4)-, 0.5 mL CD3CN
Description: To investigate whether ammonium ions present in an organic solvent can bind with CB[5]^OH, the following example was carried out.
5.5 mg of CB[5]^OH prepared in Synthesis Example 2 and 6.7 mg of (NH4)^+(BPh4)^− were dissolved in 0.5 mL CD3CN. Then, ammonium ions in (NH4)^+(BPh4)^− could bind with CB[5]^OH in an acetonitrile solution.

With hydroxycucurbit[6]uril [CB[6]^OH] the “host-guest complex formation with p-toluidine” value [1] was “Quantitative formation of a 1:1 host-guest complex”, the “host-guest complex formation with 1,4-phenylindiamine” value [2] was “Quantitative formation of a 1:1 host-guest complex” and the “host-guest complex formation with p-toluidine hydrochloride” value [3] was “Quantitative formation of a 1:1 host-guest complex”. For the same substance, the “host-guest complex formation with acetylcholine chloride” value [4] was “forming a 1:1 host-guest complex”, the “host-guest complex formation with isobutene gas” value [5] was “forming a 1:1 host-guest complex” and the “host-guest complex formation with tetrahydrofuran” value [6] was “Quantitative formation of a 1:1 host-guest complex”. For the same substance, the “host-guest complex formation with cyclopentane” value [7] was “Quantitative formation of a 1:1 host-guest complex”.

In the case of “Allyloxycucurbit[6]uril [allyoxycucurbit[6]uril]”, the “concentration range in which acetylcholine can be measured” value [8] is reported as 2.1 µM.

For hydroxycucurbit[5]uril [CB[5]^OH], the “binding with alkali metal ions and ammonium ions (microcalorimeter)” value [9] was “could selectively bind with alkali metal ions, as well as with ammonium ions”, the “ion selective electrode detection of heavy metal ions (lead)” value [10] was “could be used in detecting harmful heavy metal ions remaining in water” and the “binding of ammonium ions of (NH4)+(BPh4)- in acetonitrile solution” value [11] was “could bind”.
